Measured values reported in US10980232B2, “Herbicidal composition comprising cinmethylin and pyroxasulfone” (BASF Agro B.V., priority 2015, dated 2021).

What was measured:
Type in all cases: in vivo
[1] = system: ABUTH (Abutilon theoprasti); assay: Greenhouse preemergence herbicidal activity, ABUTH; conditions: 20 DAT
Protocol: (§1) The test plants have been seeded, separately for each species, in plastic containers in sandy loamy soil containing 5% of organic matter.
(§2) The containers were irrigated gently to promote germination and growth and subsequently covered with transparent plastic hoods until the plants had rooted.
(§3) The plants have been cultivated due to their individual requirements at 10-25° C. and 20-35° C. The plants were irrigated due to their necessity.
(§4) The racemic mixture (±)-2-exo-(2-Methylbenzyloxy)-1-methyl-4-isopropyl-7-oxabicyclo[2.2.1]heptane was used as herbicide A and formulated as emulsifiable concentrates with an active ingredient concentration of 50 g/l, 100 g/l or 750 g/l respectively.
(§5) Pyroxasulfone (herbicide B) was used as a water dispersible granule (85% WG).
(§6) In the following experiments, the herbicidal activity for the individual herbicidal compositions (solo and mixture applications) was assessed 20 days after treatment (DAT).
(§7) The evaluation for the damage on undesired weeds caused by the chemical compositions was carried out using a scale from 0 to 100%, compared to the untreated control plants. Here, 0 means no damage and 100 means complete destruction of the plants.
(§8) E=X+Y−(X·Y/100) where X=effect in percent using herbicide A at an application rate a; • Y=effect in percent using herbicide B at application rate b; • E=expected effect (in %) of herbicide A+herbicide B at application rates a+b.
(§9) The value E corresponds to the effect (plant damage or injury) which is to be expected if the activity of the individual compounds is additive. If the observed effect is higher than the value E calculated according to the Colby equation, a synergistic effect is present.

[2] = system: AMARE (Amaranthus retroflexus); assay: Greenhouse preemergence herbicidal activity, AMARE; conditions: herbicide A solo 25 g ai/ha, 20 DAT
Protocol: as §1, §2, §3, §4, §5, §6
The evaluation for the damage on undesired weeds caused by the chemical compositions was carried out using a scale from 0 to 100%, compared to the untreated control plants. […]
as §9

[3] = system: ANTAR (Anthemis arvensis); assay: Greenhouse preemergence herbicidal activity, ANTAR; conditions: 20 DAT
Protocol: as §1, §2, §3, §4, §5, §6, §7, §8, §9

[4] = system: AVEFA (Avena fatua); assay: Greenhouse preemergence herbicidal activity, AVEFA; conditions: 20 DAT
Protocol: as §1, §2, §3, §4, §5, §6, §7, §8, §9

[5] = system: CHEAL (Chenopodium album); assay: Greenhouse preemergence herbicidal activity, CHEAL; conditions: 20 DAT
Protocol: as §1, §2, §3, §4, §5, §6, §7, §8, §9

[6] = system: GALAP (Galium aparine); assay: Greenhouse preemergence herbicidal activity, GALAP; conditions: 20 DAT
Protocol: as §1, §2, §3, §4, §5, §6, §7, §8, §9

[7] = system: GERDI (Geranium dissectum); assay: Greenhouse preemergence herbicidal activity, GERDI; conditions: 20 DAT
Protocol: as §1, §2, §3, §4, §5, §6, §7, §8, §9

[8] = system: LOLMU (Lolium multiflorum); assay: Greenhouse preemergence herbicidal activity, LOLMU; conditions: 20 DAT
Protocol: as §1, §2, §3, §4, §5, §6, §7, §8, §9

[9] = system: POLCO (Polygonum convolvulus); assay: Greenhouse preemergence herbicidal activity, POLCO; conditions: 20 DAT
Protocol: as §1, §2, §3, §4, §5, §6, §7, §8, §9

[10] = system: STEME (Stellaria media); assay: Greenhouse preemergence herbicidal activity, STEME; conditions: 20 DAT
Protocol: as §1, §2, §3, §4, §5, §6, §7, §8, §9

[11] = system: AMARE (Amaranthus retroflexus); assay: Greenhouse postemergence herbicidal activity, AMARE; conditions: herbicide A solo 250 g ai/ha, 20 DAT
Protocol: as §1
(§10) For the post emergence treatment, the plants were first grown to the 2 leaf station (GS 12). Here, the herbicidal compositions were suspended or emulsified in water as distribution medium and sprayed using finely distributing nozzels.
as §3, §4, §5
(§11) In the following experiments, the herbicidal activity for the individual herbicidal compositions (solo and mixture applications) was assessed 20 days after treatment (DAT). […]
as §9

[12] = system: ANTAR (Anthemis arvensis); assay: Greenhouse postemergence herbicidal activity, ANTAR; conditions: 20 DAT
Protocol: as §1, §10, §3, §4, §5, §6, §7, §8, §9

[13] = system: AVEFA (Avena fatua); assay: Greenhouse postemergence herbicidal activity, AVEFA; conditions: 20 DAT
Protocol: as §1, §10, §3, §4, §5, §6, §7, §8, §9

[14] = system: CHEAL (Chenopodium album); assay: Greenhouse postemergence herbicidal activity, CHEAL; conditions: 20 DAT
Protocol: as §1, §10, §3, §4, §5, §6, §7, §8, §9

[15] = system: LOLMU (Lolium multiflorum); assay: Greenhouse postemergence herbicidal activity, LOLMU; conditions: 20 DAT
Protocol: as §1, §10, §3, §4, §5, §6, §7, §8, §9

[16] = system: POLCO (Polygonum convolvulus); assay: Greenhouse postemergence herbicidal activity, POLCO; conditions: herbicide A solo 250 g ai/ha, 20 DAT
Protocol: as §1, §10, §3, §4, §5, §11, §9

[17] = system: SORHA (Sorghum halepense); assay: Greenhouse postemergence herbicidal activity, SORHA; conditions: herbicide A solo 62.5 g ai/ha, 20 DAT
Protocol: as §1, §10, §3, §4, §5, §11, §9

[18] = system: STEME (Stellaria media); assay: Greenhouse postemergence herbicidal activity, STEME; conditions: 20 DAT
Protocol: as §1, §10, §3, §4, §5, §6, §7, §8, §9

With Cc1ccccc1CO[C@@H]1C[C@@]2(C(C)C)CC[C@]1(C)O2 (racemic) [herbicide A, (±)-2-exo-(2-Methylbenzyloxy)-1-methyl-4-isopropyl-7-oxabicyclo[2.2.1]heptane] the herbicidal activity ([1]; herbicide A solo 37.5 g ai/ha) was 0%, the herbicidal activity ([1]; herbicide A solo 75 g ai/ha) was 0% and the herbicidal activity ([1]; herbicide A solo 150 g ai/ha) was 0%. The herbicidal activity ([1]; herbicide A solo 300 g ai/ha) was 0%, the herbicidal activity [2] was 0% and the herbicidal activity ([3]; herbicide A solo 25 g ai/ha) was 0%. For the same compound, the herbicidal activity ([3]; herbicide A solo 37.5 g ai/ha) was 0%, the herbicidal activity ([3]; herbicide A solo 50 g ai/ha) was 0% and the herbicidal activity ([3]; herbicide A solo 75 g ai/ha) was 0%. For the same compound, the herbicidal activity ([3]; herbicide A solo 100 g ai/ha) was 0%, the herbicidal activity ([3]; herbicide A solo 150 g ai/ha) was 0% and the herbicidal activity ([3]; herbicide A solo 200 g ai/ha) was 0%. It also gave a herbicidal activity ([3]; herbicide A solo 300 g ai/ha) of 0%, a herbicidal activity ([4]; herbicide A solo 37.5 g ai/ha) of 0% and a herbicidal activity ([4]; herbicide A solo 50 g ai/ha) of 0%. For the same compound, the herbicidal activity ([4]; herbicide A solo 75 g ai/ha) was 20%, the herbicidal activity ([4]; herbicide A solo 150 g ai/ha) was 40% and the herbicidal activity ([5]; herbicide A solo 25 g ai/ha) was 20%. For the same compound, the herbicidal activity ([5]; herbicide A solo 37.5 g ai/ha) was 20%, the herbicidal activity ([5]; herbicide A solo 50 g ai/ha) was 30% and the herbicidal activity ([5]; herbicide A solo 75 g ai/ha) was 20%. It also gave a herbicidal activity ([6]; herbicide A solo 25 g ai/ha) of 0%, a herbicidal activity ([6]; herbicide A solo 50 g ai/ha) of 0% and a herbicidal activity ([6]; herbicide A solo 200 g ai/ha) of 30%. For the same compound, the herbicidal activity ([6]; herbicide A solo 300 g ai/ha) was 30%, the herbicidal activity ([7]; herbicide A solo 50 g ai/ha) was 50% and the herbicidal activity ([7]; herbicide A solo 100 g ai/ha) was 50%. For the same compound, the herbicidal activity ([7]; herbicide A solo 150 g ai/ha) was 50%, the herbicidal activity ([8]; herbicide A solo 25 g ai/ha) was 50% and the herbicidal activity ([8]; herbicide A solo 37.5 g ai/ha) was 60%. For the same compound, the herbicidal activity ([9]; herbicide A solo 37.5 g ai/ha) was 0%, the herbicidal activity ([9]; herbicide A solo 50 g ai/ha) was 0% and the herbicidal activity ([9]; herbicide A solo 75 g ai/ha) was 0%. The herbicidal activity ([9]; herbicide A solo 100 g ai/ha) was 0%, the herbicidal activity ([9]; herbicide A solo 200 g ai/ha) was 0% and the herbicidal activity ([9]; herbicide A solo 300 g ai/ha) was 0%. It also gave a herbicidal activity ([10]; herbicide A solo 25 g ai/ha) of 20%, a herbicidal activity ([10]; herbicide A solo 37.5 g ai/ha) of 0% and a herbicidal activity ([10]; herbicide A solo 50 g ai/ha) of 20%. For the same compound, the herbicidal activity ([10]; herbicide A solo 75 g ai/ha) was 20%, the herbicidal activity [11] was 25% and the herbicidal activity ([12]; herbicide A solo 62.5 g ai/ha) was 40%. The herbicidal activity ([12]; herbicide A solo 175 g ai/ha) was 90%, the herbicidal activity ([12]; herbicide A solo 250 g ai/ha) was 90% and the herbicidal activity ([13]; herbicide A solo 43.75 g ai/ha) was 25%. It also gave a herbicidal activity ([13]; herbicide A solo 87.5 g ai/ha) of 30%, a herbicidal activity ([13]; herbicide A solo 125 g ai/ha) of 60% and a herbicidal activity ([14]; herbicide A solo 62.5 g ai/ha) of 30%. The herbicidal activity ([14]; herbicide A solo 87.5 g ai/ha) was 65%, the herbicidal activity ([14]; herbicide A solo 125 g ai/ha) was 50% and the herbicidal activity ([14]; herbicide A solo 175 g ai/ha) was 60%. The herbicidal activity ([14]; herbicide A solo 500 g ai/ha) was 75%, the herbicidal activity ([15]; herbicide A solo 43.75 g ai/ha) was 0% and the herbicidal activity ([15]; herbicide A solo 62.5 g ai/ha) was 0%. It also gave a herbicidal activity ([15]; herbicide A solo 87.5 g ai/ha) of 0%, a herbicidal activity ([15]; herbicide A solo 125 g ai/ha) of 0% and a herbicidal activity [16] of 40%. It also gave a herbicidal activity [17] of 40%, a herbicidal activity ([18]; herbicide A solo 43.75 g ai/ha) of 0% and a herbicidal activity ([18]; herbicide A solo 62.5 g ai/ha) of 25%. The herbicidal activity ([18]; herbicide A solo 125 g ai/ha) was 65%, the herbicidal activity ([18]; herbicide A solo 175 g ai/ha) was 40% and the herbicidal activity ([18]; herbicide A solo 250 g ai/ha) was 70%.
